Measured values as given in patent publication US20080311126A1, “Antisense Oligonucleotides Directed to Ribonucleotide Reducatase R2 and Uses Thereof in Combination Therapies for the Treatment of Cancer” (Genesense Technologies, Inc, priority 2004, published 2008).

What was measured:
[1] = system: SK-OV-3 human ovary adenocarcinoma cells; experiment: SK-OV-3 ovary tumour xenograft in CD-1 nude mice; format: in vivo; settings: SK-OV-3 (ovary); Mouse CD-1
Procedure: SK-OV-3 human ovary adenocarcinoma cells (1×10^7 cells in 100 μl of PBS) were subcutaneously injected into the right flank of 6-7 weeks old female CD-1 nude mice. After the size of tumour reached an approximate volume of 100 mm^3, 6 days post tumour cell injection, SEQ ID NO:1 was administered by bolus infusion into the tail vein every other day at 10 mg/kg 17 times. Control animals received saline alone for the same period. Antitumour effect of SEQ ID NO: 1 was further compared to that of taxol or cisplatin alone or in combination. Taxol was administered intravenously once a week for first three weeks and intraperitoneally once a week for next two weeks at a dose of 10 mg/kg. Cisplatin was administered intravenously once a week for first three weeks and intraperitoneally once a week for next two weeks at a dose of 4 mg/kg. All treatments were stopped at day 40. Antitumour activities were estimated by the inhibition of tumour volume, which was measured with caliper. Each point represents mean tumour volume calculated from 9 animals per experimental group.

[2] = system: Hela S3 human cervix epitheloid carcinoma cells; experiment: Hela S3 hydroxyurea resistant cervix carcinoma xenograft in SCID mice; format: in vivo; settings: Hela S3 (cervix), hydroxyurea resistance; SCID
Procedure: Hela S3 human cervix epitheloid carcinoma cells (5×10^5 cells in 100 μl of PBS) were subcutaneously injected into the right flank of 6-7 weeks old female SCID mice. Hela S3 is a hydroxyurea resistant cell line. After the size of tumour reached an approximate volume of 100 mm^3, 3 days post tumour cell injection, SEQ ID NO:1 was administered by bolus infusion into the tail vein every other day at 10 mg/kg 6 times. Control animals received saline alone for the same period. Antitumour effect of SEQ ID NO:1 was further compared to that of Hydroxyurea or Cisplatin alone or in combination. Hydroxyurea was administered intraperitoneally every day at a dose of 250 mg/kg for 10 days. Cisplatin was administered intravenously once a week for three weeks at a dose of 4 mg/kg. Antitumour activities were estimated by the inhibition of tumour volume, which was measured with caliper. Each point represents mean tumour volume calculated from 10 animals per experimental group. […] As expected, treatment with Hydroxyurea during the same period was ineffective against Hydroxyurea-resistant tumour.

[3] = system: MDA-CDDP-S4 human Cisplatin-resistant breast adenocarcinoma cells; experiment: MDA-CDDP-S4 Cisplatin-resistant breast adenocarcinoma, fat pad injection in SCID mice; format: in vivo; settings: for Tumour weight as % of saline control: MDA-CDDP-S4 (breast), Cisplatin resistance, SCID
Procedure: MDA-CDDP-S4 human in vivo-selected Cisplatin-resistant breast adenocarcinoma cells (4×10^6 cells in 100 μl of PBS) were injected into the fat pad (inside of right leg) of 6-7 weeks old female SCID mice. After the size of tumour reached an approximate volume of 100 mm^3, 7 days post tumour cell injection, SEQ ID NO:1 was administered by bolus infusion into the tail vein every other day at 10 mg/kg 9 times. Control animals received saline alone for the same period. Antitumour effect of SEQ ID NO: 1 was further compared to that of Cisplatin or Taxol alone. Cisplatin was adminstered intravenously once a week for three weeks at a dose of 4 mg/kg. Taxol was administered intravenously once a week for three weeks at a dose of 10 mg/kg. Antitumour activities were estimated by the inhibition of tumour volume, which was measured with caliper. Each point represents mean tumour volume calculated from 10 animals per experimental group. […] As expected, treatment with Cisplatin during the same period was ineffective against Cisplatin-resistant tumour.
MDA-CDDP-S4 human in vivo-selected Cisplatin-resistant breast adenocarcinoma cells (4×10^6 cells in 100 μl of PBS) were injected into the fat pad (inside of right leg) of 6-7 weeks old female CB-17 SCID mice. After the size of tumour reached an approximate volume of 100 mm^3, 9 days post tumour cell injection, SEQ ID NO:1 was administered by bolus infusion into the tail vein every other day at 10 mg/kg. Control animals received saline alone for the same period. Antitumour effect of SEQ ID NO:1 was further compared to that of Taxol alone and in combination. Taxol was administered i.p. once a week at a dose of 10 mg/kg. Antitumour activities were estimated by the inhibition of tumour volume FIG. 22A), which was measured with calipers. Each point represents mean tumour volume calculated from 10 animals per experimental group. Animals were sacrificed and tumour weights taken at the end of the study (FIG. 22C). […] This study was repeated with similar results (FIG. 22B).

[4] = system: MDA-MB435-To.1 human Taxol-resistant breast adenocarcinoma cells; experiment: MDA-MB435-To.1 Taxol-resistant breast adenocarcinoma, fat pad injection in SCID mice; format: in vivo; set-up: Tumour weight as % of saline control: concentration or dose not given beside the values; settings: for Tumour weight as % of saline control: MDA-MB435-To.1 (breast), Taxol resistance
Procedure: MDA-MB435-To.1 human Taxol-resistant breast adenocarcinoma cells (4×10^6 cells in […] of PBS) were injected into the fat pad (inside of right leg) of 6-7 weeks old female SCID mice. After the size of tumour reached an approximate volume of 100 mm^3, 20 days post tumour cell injection, SEQ ID NO:1 was administered by bolus infusion into the tail vein every other day at 10 mg/kg 15 times. Control animals received saline alone for the same period. Antitumour effect of SEQ ID NO:1 was further compared to that of Cisplatin or Taxol alone. Cisplatin was administered intravenously once a week for four weeks at a dose of 4 mg/kg. Taxol was administered intravenously once a week for four weeks at a dose of 20 mg/kg.
Antitumour activities were estimated by the inhibition of tumour volume, which was measured with caliper. Bach point represents mean tumour volume calculated from 9-10 animals per experimental group. […] As expected, treatment with Taxol during the same period was ineffective against Taxol-resistant tumour.
MDA-MB435-To.1 human Taxol-resistant breast adenocarcinoma cells (4×10^6 cells in 100 μl of PBS) were injected into the fat pad (inside of right leg) of 6-7 weeks old female CB-17 SCID mice. After the size of tumour reached an approximate volume of 100 mm^3, 17 days post tumour cell injection, SEQ ID NO:1 was administered by bolus infusion into the tail vein every other day at 10 mg/kg. Control animals received saline alone for the same period. Antitumour effect of SEQ ID NO:1 was compared to that of Cisplatin alone and in combination. Cisplatin was administered intravenously once a week for four weeks at a dose of 4 mg/kg. Antitumour activities were estimated by the inhibition of tumour volume, which was measured with caliper. Each point represents mean tumour volume calculated from 10 animals per experimental group. At the end of the study the animals were sacrificed and tumours weighed.

[5] = system: MDA-MB-231 human breast cancer cells; experiment: MDA-MB-231 breast tumour xenograft in CD-1 nude mice; format: in vivo; settings: MDA-MB-231 (breast); Mouse CD-1
Procedure: MDA-MB-231 human breast cancer cells (1×10^7 cells in 100 μl of PBS) were subcutaneously injected into the right flank of 6-7 weeks old female CD-1 nude mice. After the size of tumour reached an approximate volume of 100 mm^3, 5 days post tumour cell injection, SEQ ID NO:1, or the scrambled control oligonucleotide (SEQ ID NO:3) were administered by bolus infusion into the tail vein every other day at 10 mg/kg. Control animals received saline alone for the same period. Antitumour effect of SEQ ID NO:1 was further compared to that of taxol or doxorubicin alone or in combination. Taxol was administered intravenously once a week at a dose of 10 mg/kg for three (FIG. 17A) or four weeks (FIG. 17C). Doxorubicin was administered intravenously once a week at a dose of 5 mg/kg for first three weeks (FIG. 17A) or for two weeks (FIG. 17C). All treatments were stopped at day 33 (FIG. 17A) or at day 26 (FIG. 17C), respectively. A day after the last treatment, tumours were excised from the animals and their weights were measured. […] In FIG. 17C, antitumour activities were estimated by the inhibition of tumour volume, which was measured with calipers. Each point represents mean tumour volume calculated from 10 animals per experimental group.

[6] = system: Human taxol-resistant promyelocytic leukaemia cells (HL-60); experiment: HL-60 taxol-resistant promyelocytic leukaemia xenograft in SCID mice; format: in vivo
Procedure: Human taxol-resistant promyelocytic leukaemia cells (HL-60) (7×10^6 cells in 100 μl of PBS) were injected into the right flank of 6-7 weeks old female SCID mice. After the size of tumour reached an approximate volume of 100 mm^3, 10 days post tumour cell injection, SEQ ID NO:1 was administered by bolus infusion into the tail vein every other day at 10 mg/kg. Control animals received saline alone for the same period. The anti-tumour effect of SEQ ID NO:1 was further compared to that of taxol. Taxol was administered i.p. once a week at a dose of 10 mg/kg. Anti-tumour activity was estimated by the inhibition of tumour volume, which was measured with caliper. Each point represents mean tumour volume calculated from 10 animals per experimental group. In addition animals were sacrificed and tumour weights taken at the end of the study.

[7] = system: BxPC-3 human pancreatic carcinoma cells; experiment: BxPC-3 gemcitabine resistant pancreatic carcinoma xenograft in CD-1 nude mice; format: in vivo
Procedure: BxPC-3 human pancreatic carcinoma cells (3×10^6 cells in 100 μl of PBS) were subcutaneously injected into the right flank of 6-7 weeks old female CD-1 nude mice. BxPC-3 is a gemcitabine resistant call line. After the size of tumour reached an approximate volume of 100 mm^3, 21 days post tumour cell injection, SEQ ID NO:1 was administered by bolus infusion into the tail vein every other day at 10 mg/kg 17 times. Control animals received saline alone for the same period. Antitumour effect of SEQ ID NO:1 was further compared to that of Gemcitabine. Gemcitabine was administered intravenously every three days at a dose of 100 mg/kg. Antitumour activities were estimated by the inhibition of tumour volume, which was measured with caliper. Each point represents mean tumour volume calculated from 10 animals per experimental group. […] As expected, treatment with Gemcitabine during the same period was ineffective against Gemcitabine-resistant tumour (FIGS. 19A & B).

renal cell carcinoma = settings: patients with renal cell carcinoma; cited from earlier work
[8] = study with Taxol and Cisplatin alone

## N.N.[Cl][Pt][Cl] [Cisplatin, reference compound]
[1]
  tumour volume data as percentage of saline control: 67%
[2]
  Tumour weight as % of saline control: 63%
[3]; Example 13.3, SEQ ID NO:1 10 mg/kg 9 times, Cisplatin 4 mg/kg, Taxol 10 mg/kg i.v. weekly for three weeks
  antitumour effect (tumour volume): ineffective
[3]; [8]
  Tumour weight as % of saline control: 78%
[4]; CB-17/SCID
  Tumour weight as % of saline control: 56%
[4]; SCID
  Tumour weight as % of saline control: 69%

## CC(=O)O[C@H]1C(=O)[C@@]2(C)[C@H]([C@H](OC(=O)c3ccccc3)[C@]3(O)C[C@H](OC(=O)[C@H](O)[C@@H](NC(=O)c4ccccc4)c4ccccc4)C(C)=C1C3(C)C)[C@]1(OC(C)=O)CO[C@@H]1C[C@@H]2O [Taxol, Paclitaxel, reference compound]
[5]
  Tumour weight as % of saline control: 58%
[1]
  tumour volume data as percentage of saline control: 49%
[3]; Taxol combination study, first of two value columns
  Tumour weight as % of saline control: 26%
[3]; Taxol combination study, second of two value columns
  Tumour weight as % of saline control: 61%
[3]; [8]
  Tumour weight as % of saline control: 32%
[4]; Example 13.5, SEQ ID NO:1 10 mg/kg 15 times, Cisplatin 4 mg/kg, Taxol 20 mg/kg i.v. weekly for four weeks
  antitumour effect (tumour volume): ineffective
[4]; SCID
  Tumour weight as % of saline control: 109%
[6]; HL-60 (leukemia), Taxol resistance, SCID
  Tumour weight as % of saline control: 119%
[6]; SEQ ID NO:1 10 mg/kg every other day, Taxol 10 mg/kg i.p. weekly
  anti-tumour effect (tumour volume, tumour weight): no effect on tumour growth or weight

## Nc1ccn([C@@H]2O[C@H](CO)[C@@H](O)C2(F)F)c(=O)n1 [Gemcitabine, reference compound]
[7]; BxPC-3 (pancreatic), Gemcitabine resistance, CD-1
  Tumour weight as % of saline control: 83%
[7]; SEQ ID NO:1 10 mg/kg 17 times i.v., Gemcitabine 100 mg/kg i.v. every three days
  antitumour effect (tumour volume): ineffective

## CC(=O)O[C@]1(C(C)=O)CC[C@H]2[C@@H]3C[C@H](C)C4=CC(=O)CC[C@]4(C)[C@H]3CC[C@@]21C [MPA, medroxyprogesterone acetate, reference compound]
Renal cell carcinoma
  1-year survival: 31%
